Assay results reported in US20150258059A1, “ANTIMICROBIAL AND RADIOPROTECTIVE COMPOUNDS” (BioDiem, Ltd, priority 2001, published 2015).
In brackets after ≈: the same amount, converted by molar mass. Marks after values point to notes of the source that are not given here.

How the values were obtained:
Klebsiella pneumoniae = assay: NCCLS broth microdilution MIC/MBC; type: cell-based; details: for MIC: Klebsiella pneumoniae
Trichophyton = assay: Sensitivity of pathogenic fungi; type: cell-based; details: Inoculation 10^2
[1] = system: Neisseria meningitidis M-A72; assay: Sensitivity of strains: suppression of growth; type: cell-based; details: Compound (1) 1.0%; antibiotics disc method
S. pyogenes = assay: Broth dilution bioassay, low inoculum; type: cell-based; details: in MHB
Klebsiella oxytoca = assay: NCCLS broth microdilution MIC/MBC; type: cell-based; details: for MIC: Klebsiella oxytoca
Text: (§1) NCCLS-USA Standard Method—Broth microdilution (or macrodilution) (Mueller-Hinton).
(§2) Inoculum 1-4×10^4 cfu (or −4×10^5 cfu). Ciprofloxacin test control. Chlorhexidine values added for disinfectant and antiseptic activity comparison.

[2] = system: Acinetobacter calcoaceticus RMIT; assay: NCCLS broth microdilution MIC/MBC; type: cell-based; details: for MIC: Acinetobacter calcoaceticus
Text: as §1, §2

Clostridium difficile = assay: NCCLS broth microdilution MIC/MBC; type: cell-based; details: Clostridioides difficile; Table 9
Text: as §1, §2

Campylobacter spp. = assay: NCCLS broth microdilution MIC/MBC; type: cell-based; details: Table 9, 48 h
Text: as §1, §2

Candida albicans [3] = assay: M38-P microdilution MIC/MFC; type: cell-based; details: Table 16, 24 h, 35° C.
C. krusei RMIT 177 = assay: M38-P microdilution MIC/MFC; type: cell-based; details: 35° C.
[4] = system: Conditional pathogenic enterobacteria gram-negative aerobic bacilli; type: cell-based; also: key: + sensitive strains; + moderately sensitive strains; − stable strains
Mycobact tub. H.37RV = assay: Anti-TB effect, serial double dilution in liquid medium; type: cell-based, M tuberculosis; details: read-out: Minimal Inhibitory Concentration
[5] = system: Staphylococcus aureus B-674; assay: Sensitivity of strains: suppression of growth; type: cell-based; details: Compound (1) 1.0%; antibiotics disc method
Shigella sonnei B-720 = assay: Agar diffusion assay; type: cell-based
[6] = system: S. aureus-clinical isolate 1; assay: microbe, parasite or virus in culture; type: cell-based
Text: as §1, §2

[7] = system: S. aureus-clinical isolate 2; assay: microbe, parasite or virus in culture; type: cell-based
Text: as §1, §2

Candida albicans [8] = assay: Impregnated agar serial double dilutions; details: meat peptone agar
Escherichia coli B-683 = assay: Sensitivity of strains: suppression of growth; type: cell-based; details: Compound (1) 1.0%; antibiotics disc method
Aspergillus fumigatus = assay: NCCLS broth macro-dilution MIC/MFC (RPMI); type: cell-based; details: Table 10, 7 day, 30° C.
Bacteroides fragilis = assay: NCCLS broth microdilution MIC/MBC; type: cell-based; details: for MIC: Bacteroides fragilis
Microsporum gypseum = assay: M38-P microdilution MIC/MFC; type: cell-based; details: Table 16, Dermatophytes
[9] = system: Citrobacter diversus B-678; assay: Sensitivity of strains: suppression of growth; type: cell-based; details: Compound (1) 1.0%; antibiotics disc method
E. coli = assay: MIC by solvent of formulation; details: for MIC: Escherichia coli
Fusarium graminearum [10] = assay: microbe, parasite or virus in culture; type: cell-based
Clostridium perfringens = assay: microbe, parasite or virus in culture; type: cell-based; details: 48 h
Staphylococcus aureus = assay: Rate of kill, viable counts
[11] = system: Staphylococcus aureus B-685; assay: Sensitivity of strains: suppression of growth; type: cell-based; details: Compound (1) 1.0%; antibiotics disc method
Fusarium graminearum [12] = assay: microbe, parasite or virus in culture; type: cell-based; details: 48 h
Cryptococcus neoformans = assay: M38-P microdilution MIC/MFC; type: cell-based; details: Cryptococcus neoformans, Table 16, 24 h, 35° C., read-out: MIC
Bacillus subtilis RMIT = assay: NCCLS broth microdilution MIC/MBC; type: cell-based; details: for MIC: Bacillus subtilis

## C/C(=C\c1ccc2c(c1)OCO2)[N+](=O)[O-] [Compound (1)]
Klebsiella pneumoniae; Table 9, 35° C., 24 hours
  MIC: 512 µg/mL (≈ 2470 µM)
  MMC: >512 µg/mL
Klebsiella pneumoniae; Table 17, 2 or 3 replicates
  MIC: 512 µg/mL (≈ 2470 µM)
  MMC: >512 µg/mL
Trichophyton; 0.1%
  Number of microbes: Growth: 0
  Number of microbes: Retardation: 10^7
Trichophyton; 0.5%
  Number of microbes: Growth: 0
  Number of microbes: Retardation: 10^7
Trichophyton; 2.0%
  Number of microbes: Growth: 0
  Number of microbes: Retardation: 10^7
[1]
  Suppression of Growth (+/−): +
S. pyogenes
  concentration inhibiting low inoculum: 1 µg/mL
Klebsiella oxytoca; Table 9, 35° C., 24 hours
  MIC: 128 µg/mL (≈ 618 µM)
  MMC: 256 µg/mL
Klebsiella oxytoca; Table 17, 2 or 3 replicates
  MIC: 128 µg/mL (≈ 618 µM)
  MMC: 256 µg/mL
[2]; Table 9, 35° C., 24 hours
  MIC: 128 µg/mL (≈ 618 µM)
  MMC: 256 µg/mL
[2]; Table 17, 2 or 3 replicates
  MIC: 128 µg/mL (≈ 618 µM)
  MMC: 256 µg/mL
Clostridium difficile
  MIC: 4 µg/mL (≈ 19.3 µM)
Campylobacter spp.; Campylobacter
  MIC: 128 µg/mL (≈ 618 µM)
Campylobacter spp.
  MMC: 128 µg/mL
Candida albicans [3]; Candida albicans, read-out: MIC
  MIC: 8 µg/mL (≈ 38.6 µM)
Candida albicans [3]
  MMC: 8 µg/mL
C. krusei RMIT 177; Pichia kudriavzevii, RMIT177, Table 16, 24 h, read-out: MIC
  MIC: 4 µg/mL (≈ 19.3 µM)
C. krusei RMIT 177; Table 16, 24 h
  MMC: 4 µg/mL
[4]
  Suppression of Growth (+/−): +
Mycobact tub. H.37RV
  MIC: 6.25 µg/mL (≈ 30.2 µM)
[5]
  Suppression of Growth (+/−): +
Shigella sonnei B-720; Concentration in disc 0.1%
  Diameter of zone of Growth inhibition: 30# mm
Shigella sonnei B-720; Concentration in disc 1.0%
  Diameter of zone of Growth inhibition: 35# mm
Shigella sonnei B-720; Concentration in disc 2.0%
  Diameter of zone of Growth inhibition: 39# mm
[6]; Staphylococcus aureus, 24 h
  MIC: 16 µg/mL (≈ 77.2 µM)
[6]; Table 9, 35° C., 24 hours
  MMC: 16 µg/mL
[6]; Table 17, 2 or 3 replicates
  MMC: 16 µg/mL
[7]; Staphylococcus aureus, 24 h
  MIC: 16 µg/mL (≈ 77.2 µM)
[7]; Table 9, 35° C., 24 hours
  MMC: 16 µg/mL
[7]; Table 17, 2 or 3 replicates
  MMC: 16 µg/mL
Candida albicans [8]
  Minimal % Compound (1) giving complete inhibition of test culture: 0.5%
Escherichia coli B-683
  Suppression of Growth (+/−): +
Aspergillus fumigatus; Aspergillus fumigatus, 168 h
  MIC: 8 µg/mL (≈ 38.6 µM)
Aspergillus fumigatus
  MMC: 32 µg/mL
Bacteroides fragilis; Table 9, 48 h
  MIC: 16 µg/mL (≈ 77.2 µM)
  MMC: 32 µg/mL
Bacteroides fragilis; Table 17, 2 or 3 replicates
  MIC: 16 µg/mL (≈ 77.2 µM)
  MMC: 32 µg/mL
Microsporum gypseum; Nannizzia gypsea
  MIC: 1 µg/mL (≈ 4.83 µM)
Microsporum gypseum
  MMC: 8 µg/mL
[9]
  Suppression of Growth (+/−): +
E. coli
  times more active in ethanol than in DMSO: at least 8 times
E. coli; 2.5% DMSO
  MIC: > 512 µg/mL
E. coli; formulated in ethanol (0.06% ETON)
  MIC: 128 µg/mL (≈ 618 µM)
Fusarium graminearum [10]; Fusarium graminearum, 168 h
  MIC: 4 µg/mL (≈ 19.3 µM)
Fusarium graminearum [10]; Table 10, 7 day, 30° C.
  MMC: 8 µg/mL
Clostridium perfringens; Clostridium perfringens
  MIC: 16 µg/mL (≈ 77.2 µM)
Clostridium perfringens; Table 9
  MMC: 32 µg/mL
Staphylococcus aureus; 256 μg/mL, in 6 h
  Log reduction in viable count: 0.5 in 6 h
Staphylococcus aureus; 512 μg/mL, in 9 h
  Log reduction in viable count: 4 in 9 h
[11]
  Suppression of Growth (+/−): +
Fusarium graminearum [12]; Fusarium graminearum
  MIC: 4 µg/mL (≈ 19.3 µM)
Fusarium graminearum [12]; Table 16, M38-P, 35° C.
  MMC: 8 µg/mL
Cryptococcus neoformans
  MIC: 1 µg/mL (≈ 4.83 µM)
Bacillus subtilis RMIT; Table 9, 35° C., 24 hours
  MIC: 16 µg/mL (≈ 77.2 µM)
  MMC: 16 µg/mL
Bacillus subtilis RMIT; Table 17, 2 or 3 replicates
  MIC: 16 µg/mL (≈ 77.2 µM)
  MMC: 16 µg/mL
